Results as given in US20160113911A1, “METHODS AND COMPOSITIONS FOR THE TREATMENT OF CANCER” (THE GENERAL HOSPITAL CORPORATION, priority 2013, published 2016).
“Also recorded” adds a separate entry of the source.

Assays:
Type in all cases: cell-based, human
[1] = tested on: 1q12h copy gain in RPE cells; assay: FISH for site-specific copy gain; conditions: RPE cells; 1% O2 24 hours; JIB-04 62.5 nM or 2 mM succinate pre-treatment, or overexpression
Procedure: FISH was performed as described in (Manning et al., 2010). Probes for 1q12h, 1q telomere, and chromosome 2, 6, 8, and X alpha satellite were purchased from Rainbow Scientific. Probes for 1q12 (RP11-80L2), Xq13.2 (RP11-451A22), Xq13.1 (RP11-177A4) were purchased as BAC clones from Children's Hospital Oakland Research Institute (CHORI BacPac) FISH verified clone repository. Oligonucleotide probes for 1q21.2 (BCL9) and 1q23.3 were purchased from Agilent (SureFISH). BACS were prepared utilizing PureLink HiPure Plasmid Filter Maxiprep kit (Life Technologies) using the recommended modified wash buffer. Probes were nick translated (Abbot Molecular Kit) in the presence of fluorescently labeled dTTP (Enzo Life Science). Images of multiple planes of fields of nuclei were acquired on an Olympus IX81 Spinning Disk Microscope and analyzed using Slidebook 5.0 software. We used a conservative scoring metric for copy gain. Any foci that were touching were scored as a single foci to prevent increased numbers due to normally replicated foci. For RPE cells, copy gain was scored as any cell with 3 or more distinct foci. For 293T cells, copy gain was scored for any cell with 5 or more distinct foci. For RPE cells each experiment includes at least one replicate from the two different polyclonal stable cell preparations. At least 100 cells for each replicate were scored for all experiments except analysis of single cell clones.
Cells were plated onto culture dishes and allowed to adhere for 20-24 hrs in normoxia (5% CO2, 21% O2, and 74% N2). For hypoxic treatment, cells were maintained in a HERA Cell 150™ incubator (Thermo Scientific) flushed with 5% CO2, 1% O2 or 4% O2, and balanced with N2 for the duration of the experiment. Incubator calibrations were carried out by Bianchi Associates Calibrations/Verifications.
To release, cells were washed twice with culture medium pre-conditioned in normoxia or hypoxia, and supplied with fresh pre-conditioned media. For JIB-04 treatment, normoxic cells were pre-treated with 62.5 nM JIB-04 (Xcessbio) for 24 hrs, then treated again with JIB-04 and either transferred to 1% O2 or maintained in normoxia for an additional 24 hrs. Succinate was administered at a final concentration of 2 mM and cells were either maintained in normoxia for 72 hrs or maintained in normoxia for 48 hrs prior to being transferred to 1% O2 for 24 hrs.
FISH was performed as described in (Black et al., 2013; Manning et al., 2010). Probes for 1q12h, 1q telomere, chromosome 8 centromere (alpha satellite), and X centromere (alpha satellite) were purchased from Rainbow Scientific. Probes for Xq13.1 (RP11-177A4), Zebrafish BCL9 (CH73-15J19) and Zebrafish IGBP1 (CH73-223D24) were purchased as BAC clones from Children's Hospital Oakland Research Institute (CHORI BacPac) clone repository. Probes for 1q21.2 (BCL9) and 1q23.3 were purchased from Agilent (SureFISH).
FISH was performed as described in (Black et al., 2013; Manning et al., 2010). Probes for 1q12h, 1q telomere, chromosome 8 centromere (alpha satellite), and X centromere (alpha satellite) were purchased from Rainbow Scientific. Probes for Xq13.1 (RP11-177A4), Zebrafish BCL9 (CH73-15J19) and Zebrafish IGBP1 (CH73-223D24) were purchased as BAC clones from Children's Hospital Oakland Research Institute (CHORI BacPac) clone repository. Probes for 1q21.2 (BCL9) and 1q23.3 were purchased from Agilent (SureFISH). BACS were prepared utilizing PureLink HiPure™ Plasmid Filter Maxiprep kit (Life Technologies) using the recommended modified wash buffer. Probes were nick translated (Abbot Molecular Kit) in the presence of fluorescently labeled dTTP (Enzo Life Science). Images of multiple planes of fields of nuclei were acquired on an Olympus IX81 T Spinning Disk Microscope and analyzed using Slidebook™ 5.0 software. A conservative scoring metric was used for copy gain. Any foci that were touching were scored as a single copy to prevent increased numbers due to normally replicated foci.

overall translation = assay: Translation assay (AHA incorporation, Click-IT); conditions: HEK 293T; 24h; 250 nM JIB-04 and 0.1 ng/ml Rapamycin
Procedure: Translation assays were performed following supplier's instructions from Click-IT™ Metabolic Labeling Reagents for Proteins (Life Technologies). Cells were incubated in presence of DMEM without Cysteine and Methionine for 1 h, then grown in presence of 50 μM AHA (L-azidohomoalanine, Life Technologies C10102) for 2h, harvested and washed extensively with PBS. Cells were lysed in 1% SDS in 50 mM Tris pH8 with 10% Glycerol and sonicated using a bath sonicator (QSonica™ Q800R) for 30 min. The Click-IT reactions were performed following the supplier's instructions from Click-IT™ Protein Reaction Buffer Kit (Life Technologies). Briefly, 50 μg to 100 μg of lysates were used per reaction with 40 μM Alkyne-Biotin (Life Technologies B10185), and 10 μg were assayed by western blot using a Streptavidin antibody conjugated to HRP.

KDM4A = KDM4A protein levels by western blot; conditions: RPE cells; 1% O2
Procedure: Western blot analyses were performed according to (Black et al., 2010).
Western blots were performed as in (Black et al., 2010). Briefly, adherent cells were either scraped directly into PBS, or washed with PBS, trypsinized and collected by centrifuging at 2,000 RPM for 5 minutes. For preparation of whole-cell lysates, cell pellets were washed once in ice-cold PBS and resuspended in RIPA lysis buffer [50 mM Tris pH 7.4, 150 mM NaCl, 0.25% Sodium Deoxycholate, 1% NP40, 1 mM EDTA, 10% Glycerol] supplemented with complete protease inhibitor and PhosSTOP™ phosphatase inhibitor cocktails (Roche). Cells were lysed on ice for 15 minutes and immediately frozen at −80° C. for 10 min. Lysates were subsequently sonicated at 70% amplitude for 15 minutes in a QSonica Q800R™ and cleared of cell debris by centrifuging at 12,000 RPM for 15 minutes, before being analyzed by western blotting. For HIF1α expression, adherent cells were washed twice with ice-cold PBS and scraped directly in warmed 1× Laemmli buffer. Samples were sonicated at 70% amplitude for 15 minutes and boiled immediately prior to western blotting.

translation initiation = assay: Polysome profiles; conditions: 293T cells
HEK 293T cells [2] = assay: MTT proliferation and viability assay; conditions: JIB-04 vs vehicle, 48h
Procedure: For tissue culture and generation of stable cell lines see (Black et al., 2010). Rapamycin (LC Laboratories) and AZD8055 (Selleckchem) were used at indicated concentrations. […] JIB-04 (Xcessbio) was used at a final concentration of 250 nM. For the translation assays, DMEM depleted of Methionine and Cysteine (Life Technologies 21013-024) was used.
MTT assays were performed following supplier's instructions from the Cell Proliferation Kit I™ (MTT) from Roche. Briefly, 1×10^4 cells were seeded per well of a 96 well plate and grown for 24h before treatment. Forty-eight hours later, cells were assayed.

HEK 293T cells [3] = assay: Monitored cell proliferation assay (xCELLigence growth curves, doubling time); conditions: HEK293T
Procedure: Seventy two hours post transfection 1×10^4 HEK 293T cells were seeded per well of a 96 well plate, and then treated after 24h. Cell proliferation was monitored with an xCELLigence system (Roche) (Vistejnova et al., 2009).

RPE cells = assay: Flow cytometry cell cycle analysis; conditions: normoxia and hypoxia
Procedure: Asynchronously growing, or G1/S arrested cells were prepared and fixed as in (Black et al., 2010). Cells were stained with 10 μM EdU for 1 hour prior to collection. Cell cycle was analyzed by PI staining or EdU incorporation using Click-IT EdU™ Flow Cytometry Assay Kit (Life Technologies). Flow cytometry of CD4+ T cells and cell cycle distribution were analyzed using a BD FACS ARIA II™.

SMILES: Clc1ccc(N/N=C(\c2ccccc2)c2ccccn2)nc1 [JIB-04]
- hypoxia-dependent copy gain of 1q12h [1]: did significantly reduce hypoxia-dependent copy gain of 1q12h
- overall translation with JIB-04 and Rapamycin (overall translation): enhanced the alteration of translation observed after Rapamycin treatment
- KDM4A protein levels in hypoxia (KDM4A): did not substantially alter KDM4A protein levels in hypoxia
- polysome profile, JIB-04 with Rapamycin (translation initiation; JIB-04 250 nM and Rapamycin 0.1 ng/ml): can sensitize cells to Rapamycin by increasing their translation initiation defect
- polysome profile, JIB-04 alone (translation initiation; JIB-04 250 and 500 nM): leads to a translation initiation defect
- sensitivity to Rapamycin and AZD8055 upon JIB-04 co-treatment (HEK 293T cells [2]): enhanced the effect of both Rapamycin and AZD8055; also recorded: more sensitive to Rapamycin and AZD8055 than cells treated with vehicle
- cell sensitivity to Rapamycin (doubling time between 5 h and 35 h) (HEK 293T cells [3]; 250 nM JIB-04 and 1 ng/ml of Rapamycin): increases cell sensitivity to Rapamycin
- cell sensitivity to AZD8055 (doubling time between 5 h and 35 h) (HEK 293T cells [3]; 250 nM JIB-04 and 50 nM of AZD8055): increases cell sensitivity to AZD8055
- cell cycle profile (RPE cells): did not result in significant differences in cell cycle between normoxic and hypoxic cells
